Patent US5086042A, “Peptides with sulfate ester groups” (Fisons Corporation, priority 1989, dated 1992)
Where “and” joins values, the source holds several entries; their conditions need not be identical. Identical values can stand only once. Non-standard residues stand in square brackets, D forms with d. Residues, ends and D or L forms follow the SMILES beside them. sY = N[C@@H](Cc1ccc(OS(=O)(=O)O)cc1)C(=O)O

Test system: Male Sprague-Dawley rats
Type: in vivo
Conditions: rat, intraperitoneal; for % FEEDING INHIBITION 0.5 hr / % FEEDING INHIBITION 3 hr: 30 μg/kg, vs saline controls; for % FEEDING INHIBITION 0.5 hr / % FEEDING INHIBITION 0.5 hr (values marked *) / feeding inhibition during the 0.5 hour feeding period: 0.5 hr feeding period; for % FEEDING INHIBITION 3 hr / feeding inhibition during the 3 hour feeding period / % FEEDING INHIBITION 3 hr (values marked *): 3 hr feeding period; for % FEEDING INHIBITION 3 hr: IA means inactive; for % FEEDING INHIBITION 0.5 hr (values marked *) / % FEEDING INHIBITION 3 hr (values marked *): 300 μg/kg, <10% inhibition at 30 μg/kg; for feeding inhibition during the 0.5 hour feeding period: 0.3 μg/kg; for feeding inhibition during the 3 hour feeding period: 3 μg/kg
Experimental: The peptides of this invention have the ability to inhibit feeding activity in mammals. As a result they have utility in the prevention and treatment of obesity.
Male Sprague-Dawley rats (weighing 300-350 g) are individually caged and maintained on a 12 hr. light, dark cycle and trained for at least 14 days to feed during a three hr period of the dark cycle but not the 21 hours preceding that three hr period. The day of the study, rats are dosed intraperitoneally with saline (controls) or test compound (dissolved in saline; usually at a concentration of 0.3 to 300 micrograms of test compound per kg of rat weight). Food is introduced 10 minutes after administration of saline or test compound. […] The % feeding inhibition for the 1/2 hr and 3 hr feeding periods obtained by administering a dose of 30 μg/kg of test compound is given in Table 2 for CCK-8 and various compounds of the invention. For example, the % feeding inhibition obtained with CCK-8 (first line of Table 2) was 70% for the 1/2 hr feeding period and 25% for the 3-hour period.

| Compound | % FEEDING INHIBITION 0.5 hr | % FEEDING INHIBITION 3 hr | % FEEDING INHIBITION 0.5 hr (values marked *) | feeding inhibition during the 0.5 hour feeding period | feeding inhibition during the 3 hour feeding period | % FEEDING INHIBITION 3 hr (values marked *) |
| --- | --- | --- | --- | --- | --- | --- |
| CCNC(=O)[C@H](Cc1ccccc1)NC(=O)[C@H](CC(=O)O)NC(=O)[C@H](CCSC)NC(=O)[C@H](Cc1c[nH]c2ccccc12)NC(=O)CNC(=O)[C@H](CCSC)NC(=O)[C@H](Cc1ccc(OS(=O)(=O)O)cc1)NC(=O)[C@@H](N)CC(=O)O [H-Asp-Tyr(SO3 H)-Met-Gly-Trp-Met-Asp-Phe-NHEt] | 16% | – | – | – | – | – |
| CC(C)C[C@H](NC(=O)[C@H](Cc1ccc(OS(=O)(=O)O)cc1)NC(=O)[C@@H](N)CC(=O)O)C(=O)NCC(=O)N[C@@H](Cc1c[nH]c2ccccc12)C(=O)N[C@@H](CC(C)C)C(=O)N[C@@H](CC(=O)O)C(=O)N[C@@H](Cc1ccccc1)C(N)=O [H-Asp-Tyr(SO3 H)-Leu-Gly-Trp-Leu-Asp-Phe-NH2] | 89% | 24% | – | – | – | – |
| NCCCC[C@H](NC(=O)[C@H](Cc1ccc(OS(=O)(=O)O)cc1)NC(=O)[C@@H](N)CC(=O)O)C(=O)NCC(=O)N[C@@H](Cc1c[nH]c2ccccc12)C(=O)N[C@@H](CCCCN)C(=O)N[C@@H](CC(=O)O)C(=O)N[C@@H](Cc1ccccc1)C(N)=O [H-Asp-Tyr(SO3 H)-Lys-Gly-Trp-Lys-Asp-Phe-NH2] (HELM PEPTIDE1{D.[O=C([C@H](Cc1ccc(OS(=O)(=O)O)cc1)N[*:1])[*:2]].K.G.W.K.D.F.[am]}$$$$V2.0) | – | – | 45% | – | – | – |
| iBuOCO-Tyr(SO3 H)-Ahx-Gly-Trp-Ahx-Asp-Phe-NH2 | 100% | 100% | – | 20-72% | 50-90% | – |
| CNC(=O)[C@H](Cc1ccccc1)NC(=O)[C@H](CC(=O)O)NC(=O)[C@H](CCSC)NC(=O)[C@H](Cc1c[nH]c2ccccc12)NC(=O)CNC(=O)[C@H](CCSC)NC(=O)[C@H](Cc1ccc(OS(=O)(=O)O)cc1)NC(=O)[C@@H](N)CC(=O)O [H-Asp-Tyr(SO 3 H)-Met-Gly-Trp-Met-Asp-Phe-NHMe] | – | – | 13% | – | – | – |
| CSCC[C@H](NC(=O)[C@H](Cc1ccc(OS(=O)(=O)O)cc1)NC(=O)[C@@H](N)CC(=O)O)C(=O)NCC(=O)N[C@@H](Cc1c[nH]c2ccccc12)C(=O)N[C@@H](CCSC)C(=O)N[C@@H](CC(=O)O)C(=O)N[C@H](Cc1ccccc1)C(N)=O [H-Asp-Tyr(SO3 H)-Met-Gly-Trp-Met] | 46% | – | – | – | – | 14% |
| CSCC[C@H](NC(=O)[C@H](Cc1c[nH]c2ccccc12)NC(=O)CN(C)C(=O)[C@H](CCSC)NC(=O)[C@H](Cc1ccc(OS(=O)(=O)O)cc1)NC(=O)[C@@H](N)CC(=O)O)C(=O)N[C@@H](CC(=O)O)C(=O)N[C@@H](Cc1ccccc1)C(N)=O [H-Asp-Tyr(SO3 H)-Met-Sar-Trp-Met-Asp-Phe-NH2] | – | – | 55% | – | – | – |
| Suc-Tyr(SO3 H)-Ile-Gly-Trp-Ahx-Asp-MePhe-NH2 | 100% | 100% | – | 20-72% | 50-90% and 90% | – |
| Hpp(SO3 sH)-Ahx-Gly-Trp-Ahx-Asp-MePhe-NH2 [Hpp(SO3 H)-Ahx-Gly-Trp-Ahx-Asp-MePhe-NH2] | 94% | 96% | – | 20-72% | 50-90% | – |
| CC[C@H](C)[C@H](NC(=O)[C@H](Cc1ccc(OS(=O)(=O)O)cc1)NC(=O)[C@@H](N)CC(=O)O)C(=O)NCC(=O)N[C@@H](Cc1c[nH]c2ccccc12)C(=O)N[C@H](C(=O)N[C@@H](CC(=O)O)C(=O)N[C@@H](Cc1ccccc1)C(N)=O)[C@@H](C)CC [H-Asp-Tyr(SO3 H)-Ile-Gly-Trp-Ile-Asp-Phe-NH2] (HELM PEPTIDE1{D.[O=C([C@H](Cc1ccc(OS(=O)(=O)O)cc1)N[*:1])[*:2]].I.G.W.I.D.F.[am]}$$$$V2.0) | 85% | 20% | – | – | – | – |
| H-Asp-Tyr(SO3 H)-Ahx-Gly-Trp-Ahx-Asp-Phe-NH2 | 82% | 27% | – | – | – | – |
| Suc-Tyr(SO3 ° H)-Ahx-Gly-Trp-Ahx-Asp-MePhe-NH2 | 100% | 98% | – | 20-72% | 50-90% | – |
| CSCC[C@H](NC(=O)[C@H](Cc1ccc(OS(=O)(=O)O)cc1)NC(=O)CCC(=O)O)C(=O)NCC(=O)N[C@@H](Cc1c[nH]c2ccccc12)C(=O)N[C@@H](CCSC)C(=O)N[C@@H](CC(=O)O)C(=O)N[C@@H](Cc1ccccc1)C(N)=O [Suc-Tyr(SO3 H)-Met-Gly-Trp-Met-Asp-Phe-NH2] (HELM PEPTIDE1{[O=C(O)CCC(=O)[*:2]].[O=C([C@H](Cc1ccc(OS(=O)(=O)O)cc1)N[*:1])[*:2]].M.G.W.M.D.F.[am]}$$$$V2.0) | 75% | 55% | – | – | – | – |
| CSCC[C@H](NC(=O)[C@H](Cc1c[nH]c2ccccc12)NC(=O)[C@@H](C)NC(=O)[C@H](CCSC)NC(=O)[C@H](Cc1ccc(OS(=O)(=O)O)cc1)NC(=O)CCC(=O)O)C(=O)N[C@@H](CC(=O)O)C(=O)N[C@@H](Cc1ccccc1)C(N)=O [Suc-Tyr(SO3 H)-Met-DAla-Trp-Met-Asp-Phe-NH2] (HELM PEPTIDE1{[O=C(O)CCC(=O)[*:2]].[O=C([C@H](Cc1ccc(OS(=O)(=O)O)cc1)N[*:1])[*:2]].M.[dA].W.M.D.F.[am]}$$$$V2.0) | 75% | 30% | – | – | – | – |
| CSCC[C@H](NC(=O)[C@H](Cc1ccc(OS(=O)(=O)O)cc1)NC(=O)[C@@H](N)CC(=O)O)C(=O)NCC(=O)N[C@@H](Cc1c[nH]c2ccccc12)C(=O)N[C@@H](CCSC)C(=O)N[C@@H](CC(=O)O)C(=O)N[C@@H](Cc1ccc([N+](=O)[O-])cc1)C(N)=O [H-Asp-Tyr(SO3 H)-Met-Gly-Trp-Met-Asp-Phe(4-NO2)-NH2] | 43% | 17% | – | – | – | – |
| iBuOCO-Tyr(SO3 H)-Ahx-Gly-Trp-Ahx-Asp-MePhe-NH2 | 100% | 100% | – | 20-72% | 50-90% | – |
| H-Asp-Tyr(SO3 H)-Met-Gly-Trp-Met-Asp-Tyr-NH2 (H-D[sY]MGWMDY-NH2; not fully specified) | – | – | 23% | – | – | – |
| CSCC[C@H](NC(=O)[C@H](Cc1ccc(OS(=O)(=O)O)cc1)NC(=O)[C@@H](N)CC(=O)O)C(=O)NCC(=O)N[C@@H](Cc1c[nH]c2ccccc12)C(=O)N[C@@H](CCSC)C(=O)N[C@H](CC(=O)O)C(=O)N[C@@H](Cc1ccccc1)C(N)=O [H-Asp-Tyr(SO3 H)-Met-Gly-Trp-Met-DAsp-Phe-NH2] | 32% | – | – | – | – | 15% |
| CSCC[C@H](NC(=O)[C@H](Cc1ccc(OS(=O)(=O)O)cc1)NC(=O)[C@@H](N)CC(=O)O)C(=O)NCC(=O)N[C@@H](Cc1c[nH]c2ccccc12)C(=O)N[C@@H](CCSC)C(=O)N[C@@H](CC(N)=O)C(=O)N[C@@H](Cc1ccccc1)C(N)=O [H-Asp-Tyr(SO3 H)-Met-Gly-Trp-Met-Asn-Phe-NH2] (HELM PEPTIDE1{D.[O=C([C@H](Cc1ccc(OS(=O)(=O)O)cc1)N[*:1])[*:2]].M.G.W.M.N.F.[am]}$$$$V2.0) | – | – | 43% | – | – | – |
| CSCC[C@H](NC(=O)[C@H](Cc1c[nH]c2ccccc12)NC(=O)[C@@H](C)NC(=O)[C@H](CCSC)NC(=O)[C@H](Cc1ccc(OS(=O)(=O)O)cc1)NC(=O)[C@@H](N)CC(=O)O)C(=O)N[C@@H](CC(=O)O)C(=O)N[C@@H](Cc1ccccc1)C(N)=O [H-Asp-Tyr(SO3 H)-Met-DAla-Trp-Met-Asp-Phe-NH2] (HELM PEPTIDE1{D.[O=C([C@H](Cc1ccc(OS(=O)(=O)O)cc1)N[*:1])[*:2]].M.[dA].W.M.D.F.[am]}$$$$V2.0) | 16% | – | – | – | – | 18% |
| H-Asp-Tyr(SO3 H)-Met-Gly-Trp-Ahx-Asp-Phe-NH2 | 82% | 23% | – | – | – | – |
| CSCC[C@H](NC(=O)[C@H](Cc1ccc(OS(=O)(=O)O)cc1)NC(=O)[C@@H](N)CC(=O)O)C(=O)NCC(=O)N[C@@H](Cc1c[nH]c2ccccc12)C(=O)N[C@@H](CCSC)C(=O)N[C@@H](CC(=O)O)C(=O)N[C@@H](Cc1ccc(C)cc1)C(N)=O [H-Asp-Tyr(SO3 H)-Met-Gly-Trp-Met-Asp-Phe(4-Me)-NH2] | 57% | 18% | – | – | – | – |
